Laboratory results taken from patent US10851096B2, “Aryl and heteroaryl amides for use as anti-proliferative, anti-thrombotic, and anti-viral agents” (Rutgers, The State University of New Jersey, priority 2016, dated 2020).

Columns and labels:
[1] = Pharmacokinetics in mice (half-life, bioavailability); type: in vivo, mouse; settings: for half-life: mouse, in vivo, read-out: half-life (t1/2) (converted)
Akt phosphorylation = experiment: Gas6-inducible Akt phosphorylation in Axl-positive cancer cell lines; type: cell-based, human; settings: pre-treatment with 10 μM
Procedure: (§1) Stable hAxl/IFN-γR1 CHO reporter cell lines (containing human Axl extracellular domains and transmembrane and intracellular domains of human IFN-γR1) were serum starved for 5 hrs±small molecule inhibitors and then stimulated with human Gas6 conditioned media±small molecule inhibitors for 30 minutes. For H1299 human non-small cell lung carcinoma and MDA-MB-231 human breast adenocarcinoma cell lines, the cells were serum starved overnight±small molecule inhibitors and stimulated with human Gas6 conditioned media±small molecule inhibitors for 30 minutes. Whole cell lysates of hAxl/IFN-γR1, H1299 and MDA-MB-231 cells were prepared using HNTG buffer (20 mM HEPES, pH 7.5, 150 mM NaCl, 10% glycerol, 1% Triton X-100, 1 mM PMSF, 1 mM Na3VO4, 10 mM Na2MoO4, 1 mM EDTA, 10 mM NaF and 20 μg/mL aprotinin). The resulting lysates were resolved on SDS-PAGE gel and immunoblotted with respective antibodies.

H1299 cells [2] = experiment: Gas6-inducible motility through transwell pore, H1299; type: cell-based, human; settings: pretreatment of H1299 cells
[3] = test system: H1299 lung cancer xenograft; experiment: Mouse xenograft study, human H1299 lung cancer; type: in vivo; settings: for growth of tumor (tumor volume): 100 mg/kg IP
Procedure: 500,000 H1299 cells in 100 μl of PBS were injected subcutaneously into the right flank of 4-6 week NOD/SCIDg mice. Once tumors were palpable, the mice were randomized into 3 groups, each group had 6 mice: control mice were treated with vehicle (DMSO) intraperitoneally (IP) and the treatment groups with compound 1I (day 1, day 2, day 3 and day 4) or with compound 1Q (day 1, day 2, day 3, day 4, day 7 and day 8) at a dose of 100 mg/kg IP. Similar studies were conducted on compound 1Q dosed at 300 mg/kg in mice. Tumor size and body weights were measured three times a week and the tumor volume calculated.
Finally, based on the promising in vitro and cell culture experiments showing anti-Axl activity of certain compounds, the in vivo efficacies of compound 1I and compound 1Q using a murine SCID/human H1299 lung cancer xenograft model was investigated (FIG. 7A-E). As indicated, SCID mice were subcutaneously injected with 250,000 tumor cells in the hind flanks with human H1299 cells until palpable tumors were present. Subsequently, mice were injected every two days with vehicle, compound 1I or compound 1Q at a concentration of 100 mg/kg for up to 2 weeks. […] Taken together, these studies support the further development of TAM Ig1 inhibitors as anti-cancer therapeutics (FIGS. 7A-E).

MDA-MB-231 cells = experiment: Real-time migration assay (RTCA DP Xcelligence), MDA-MB-231; type: cell-based, human; settings: Gas6-inducible MDA-MB-231 cells
Procedure: (§2) H1299 and MDA-MB-231 cells lines were seeded in complete medium and allowed to attain ˜80% confluence and then serum starved overnight in medium containing 0.5% FBS. The cells were then detached by Accutase (Sigma), counted and resuspended in serum-free RPMI-1640 medium. In the lower chamber of the CIM plate, 1×RPMI-1640 containing 10% FBS was added as a chemoattractant. In the top chamber, 50 μl of 1×RPMI-1640 was added to all wells. Both chambers were assembled, loaded in the Xcelligence system, and run for 30 min for equilibration or background readings. One hundred microliters of each cell line suspended in 1×RPMI-1640 (40,000 cells/100 μl)±Gas6±small molecule inhibitors then were added in triplicates in upper chamber wells. Readings for changes in the cell index (CI) were taken every 10 min for 24 h and migration was shown as a change in cell index versus time.

native Axl [4] = target: T1, native Axl (Homo sapiens, UniProt P30530); experiment: Gas6-inducible phosphorylation of native Axl in H1299 cells (immunoblot); type: cell-based; settings: H1299 lung cancer cell line, FIG. 5B
T1 construct: Gas6-inducible phosphorylation of native Axl (pAxl); endogenous in cells; host or cells: MDA-MB-231
T1 sequence (P30530 26-894): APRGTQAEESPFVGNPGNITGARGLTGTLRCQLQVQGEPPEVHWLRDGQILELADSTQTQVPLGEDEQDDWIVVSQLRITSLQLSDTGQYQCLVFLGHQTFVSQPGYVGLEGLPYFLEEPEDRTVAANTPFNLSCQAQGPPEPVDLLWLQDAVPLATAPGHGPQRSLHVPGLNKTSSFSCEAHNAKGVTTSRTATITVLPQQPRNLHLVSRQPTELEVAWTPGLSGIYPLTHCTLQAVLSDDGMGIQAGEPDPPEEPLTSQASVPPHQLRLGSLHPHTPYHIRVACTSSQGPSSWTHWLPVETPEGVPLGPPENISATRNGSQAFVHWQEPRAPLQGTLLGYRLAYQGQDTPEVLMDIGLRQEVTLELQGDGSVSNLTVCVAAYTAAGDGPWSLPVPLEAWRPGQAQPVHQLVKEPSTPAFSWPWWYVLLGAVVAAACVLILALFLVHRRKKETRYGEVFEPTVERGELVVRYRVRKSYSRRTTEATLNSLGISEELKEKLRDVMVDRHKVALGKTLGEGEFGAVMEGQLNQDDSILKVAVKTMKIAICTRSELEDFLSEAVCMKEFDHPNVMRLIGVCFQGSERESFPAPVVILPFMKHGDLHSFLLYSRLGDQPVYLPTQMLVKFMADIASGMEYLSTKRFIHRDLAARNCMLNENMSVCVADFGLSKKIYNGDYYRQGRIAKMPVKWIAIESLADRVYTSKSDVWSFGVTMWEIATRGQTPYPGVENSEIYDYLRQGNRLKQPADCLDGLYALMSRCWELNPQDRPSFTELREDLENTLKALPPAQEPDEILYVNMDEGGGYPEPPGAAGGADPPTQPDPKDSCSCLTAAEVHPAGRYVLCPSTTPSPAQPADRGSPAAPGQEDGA
Procedure: as §1
(§3) Immunoblot data were obtained within a linear range of exposure, and intensities were quantified by ImageJ. The levels of hAxl/IFN-γR1 cells lines activation were measured by pSTAT1 whereas the levels of H1299 and MDA-MB-231 cell lines activation were measured by pAxl signal intensities. Blots were normalized to intensities of respective β-actin or GAPDH protein loading controls. […]

H1299 cells [5] = experiment: Real-time migration assay (RTCA DP Xcelligence), H1299; type: cell-based, human; settings: Gas6-inducible H1299 cells
Procedure: as §2

native Axl [6] = target: T1, native Axl; experiment: Gas6-inducible phosphorylation of native Axl in MDA-MB-231 cells (immunoblot); type: cell-based; settings: MBA-MD-231 breast cancer cell line, FIG. 5A
Procedure: as §1, §3

Compound	bioavailability [1]	half-life [1]	Gas6-inducible Akt phosphorylation (Akt phosphorylation)	Gas6-inducible motility through an 8 μm pore (H1299 cells [2])	growth of tumor (tumor volume) [3]	motility (real-time, cell index) (MDA-MB-231 cells)	inhibition of activation (phosphorylation) of Axl (native Axl [4])	motility (real-time, cell index) (H1299 cells [5])	inhibition of activation (phosphorylation) of Axl (native Axl [6])	tumor growth (volume) ([3]; 300 mg/kg IP)
Cc1noc(C)c1CSc1ccccc1C(=O)N1CCN(c2cccc(C(F)(F)F)c2)CC1 [1I]	good bioavailability	~8 h	abrogated	strongly suppressed	significantly suppressed growth of tumor	suppressed motility	potent inhibition	suppressed motility	potent inhibition	
Cc1cc(CSc2ccccc2C(=O)NCCNc2ccc(C(F)(F)F)cc2[N+](=O)[O-])on1 [1Q]	good bioavailability	~8 h	abrogated	strongly suppressed	significantly suppressed growth of tumor	suppressed motility	potent inhibition	suppressed motility	potent inhibition	suppress tumor growth
